# In paper PMC10536273, “Development of Masitinib Derivatives with Enhanced M^pro Ligand Efficiency and Reduced Cytotoxicity” (Molecules, 2023):
# Counter-ions that a name gives are not always drawn. Like-named read-outs stand apart in the source and are kept apart here.
# Key:
# [1] = system: HCoV-OC43; test: microbe, parasite or virus in culture; type: cell-based; conditions: for IC50: read-out: IC50, HCoV-OC43 antiviral assay
# [2] = system: A549 cells; test: Compound toxicity assay, live cell imaging of A549 cell growth; conditions: compared to DMSO
# [3] = biological target: M^pro; conditions: masitinib activity on M^pro; read-out: inhibition constant, Ki; cited from earlier work
# [4] = biological target: c-Kit enzyme (Homo sapiens, UniProt P10721); test: Luminescence-based in vitro c-Kit kinase assay; type: biochemical
# Sequence of c-Kit enzyme (P10721 26-976): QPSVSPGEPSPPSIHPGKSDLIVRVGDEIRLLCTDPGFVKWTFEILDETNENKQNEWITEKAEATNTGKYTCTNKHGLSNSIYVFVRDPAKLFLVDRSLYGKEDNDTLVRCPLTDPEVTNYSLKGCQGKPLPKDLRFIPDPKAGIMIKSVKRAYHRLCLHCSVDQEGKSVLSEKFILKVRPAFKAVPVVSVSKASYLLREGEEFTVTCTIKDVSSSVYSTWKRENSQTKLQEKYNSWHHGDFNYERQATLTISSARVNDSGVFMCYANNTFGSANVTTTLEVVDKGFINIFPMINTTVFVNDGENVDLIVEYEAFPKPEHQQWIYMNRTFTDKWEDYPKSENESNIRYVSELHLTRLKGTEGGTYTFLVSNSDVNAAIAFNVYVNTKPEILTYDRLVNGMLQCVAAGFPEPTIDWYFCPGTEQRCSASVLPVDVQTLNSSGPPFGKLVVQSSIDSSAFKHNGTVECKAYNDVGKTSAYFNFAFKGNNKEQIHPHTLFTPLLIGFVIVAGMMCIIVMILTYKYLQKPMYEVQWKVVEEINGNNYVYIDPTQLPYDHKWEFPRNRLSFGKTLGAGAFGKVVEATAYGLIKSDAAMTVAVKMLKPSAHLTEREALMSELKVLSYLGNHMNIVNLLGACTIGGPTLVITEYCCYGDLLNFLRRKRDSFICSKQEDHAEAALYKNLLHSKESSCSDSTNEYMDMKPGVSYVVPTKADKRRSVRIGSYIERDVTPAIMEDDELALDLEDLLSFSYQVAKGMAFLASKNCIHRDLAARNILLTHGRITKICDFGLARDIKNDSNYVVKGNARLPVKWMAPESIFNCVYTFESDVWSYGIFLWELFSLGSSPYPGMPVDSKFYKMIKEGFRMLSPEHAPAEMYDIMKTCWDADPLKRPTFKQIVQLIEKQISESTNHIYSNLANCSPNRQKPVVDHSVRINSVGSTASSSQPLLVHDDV
# [5] = system: A549 cells; conditions: human
# [6] = biological target: SARS-CoV-2 M^pro (Severe acute respiratory syndrome coronavirus 2, UniProt P0DTD1); test: cell-based; conditions: transfected HEK-293T cells, 24 h; for IC50: read-out: IC50 (approximate), SARS-CoV-2 M^pro activity, GFP normalized to TagBFP2
# [7] = A549+hACE2 cells, MOI 0.1, 48 h, normalized to DMSO
Structure (SMILES),"IC50 ([1]; Betacoronavirus 1, OC43, 48 h)",IC50 [4],Doubling Time ([5]; 0.3 µM),Doubling Time ([5]; 1 µM),Doubling Time ([5]; 3 µM),Doubling Time ([5]; 10 µM),further results
"Cc1ccc(NC(=O)c2ccc(CN3CCN(C)CC3)cc2)cc1Nc1nc(-c2cccnc2)cs1 [masitinib (Original), masitinib]",1.71 µM,–,–,–,–,–,–
"Cc1ccc(NC(=O)c2ccc(CN3CCN(C)CC3)cc2)cc1Nc1nc(-c2cccnc2)cs1 [masitinib (TFA), Masitinib trifluoroacetate salt]",–,–,–,–,–,–,"effect on cell growth (in words) ([2]; 3 µM dose): still inhibited cell division; effect on cell growth (in words) ([2]; 10 µM compound dose): completely inhibited cell growth; IC50 [1, 7]: 3.98 µM"
Cc1ccc(NC(=O)c2ccc(CN3CCN(C)CC3)cc2)cc1Nc1nc(-c2cccnc2)cs1 [masitinib],–,–,–,–,–,–,Ki [3]: 2.6 µM
Cc1ccc(NC(=O)c2ccc(CN3CCN(C)CC3)cc2O)cc1Nc1nc(-c2cccnc2)cs1 [M2],6.77 µM,0.233 µM,21.52 h,21.44 h,21.57 h,33.63 h,IC50 [6]: 8.35 µM
Cc1ccc(OC(=O)c2ccc(CN3CCN(C)CC3)cc2)cc1Nc1nc(-c2cccnc2)cs1 [M5],–,–,22.37 h,21.95 h,21.83 h,25.19 h,"IC50, HCoV-OC43 antiviral assay [1, 7]: no measurable antiviral activity"
CC(=O)Nc1ccc(C)c(Nc2nc(-c3cccnc3)cs2)c1 [M4],5.7 µM,–,22.01 h,21.47 h,22.28 h,37.36 h,–
Cc1ccc(NC(=O)c2ccc(CN3CCN(C)CC3)c(O)c2)cc1Nc1nc(-c2cccnc2)cs1 [M1],4.7 µM,1.09 µM,21.75 h,21.89 h,23.72 h,52.78 h,"IC50 (approximate), SARS-CoV-2 M^pro activity, GFP normalized to TagBFP2 [6]: did not show inhibition of M^pro activity"
Cc1ccc(C(=O)Nc2ccc(C)c(Nc3nc(-c4cccnc4)cs3)c2)cc1 [M3],3.99 µM,0.077 µM,22.13 h,21.49 h,22.49 h,30.76 h,IC50 [6]: 2.54 µM
